Laboratory results from ChEMBL document CHEMBL1201862, “PubChem BioAssay data set” (2004).
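Cultured in 96-well plates, cells were exposed to test compound for 48 hours across five concentrations. Abbreviation: GI50, concentration required for 50% inhibition of growth.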 The source made the active and inactive calls. No stated cut-off is given here; in the data, active = GI50 up to about 1.1 µM and inactive = higher.

What was measured:
Assay in all cases: DTP human tumour cell line panel, 48 h
SNB-75 = test system: SNB-75
NCI-H23 = test system: NCI-H23
Malme-3M = test system: Malme-3M
MOLT-4 = test system: MOLT-4
HL-60 = test system: HL-60
OVCAR-5 = test system: OVCAR-5
HOP-92 = test system: HOP-92
SN12C = test system: SN12C
UO-31 = test system: UO-31
NCI-H460 = test system: NCI-H460
HT-29 = test system: HT-29
SK-MEL-28 = test system: SK-MEL-28
OVCAR-3 = test system: OVCAR-3
KM12 = test system: KM12
LOX IMVI = test system: LOX IMVI
RPMI-8226 = test system: RPMI-8226
SF-268 = test system: SF-268
COLO 205 = test system: COLO 205
HCC 2998 = test system: HCC 2998
HCT-116 = test system: HCT-116

Measured: GI50

c1ccc2c(c1)c1ccccc1n2Cn1c2ccccc2c2ccccc21
inactive: SNB-75 30.8 µM | NCI-H23 > 100 µM | Malme-3M > 100 µM | MOLT-4 > 100 µM | HL-60 > 100 µM | OVCAR-5 > 100 µM | HOP-92 > 100 µM | SN12C > 100 µM | UO-31 > 100 µM | NCI-H460 > 100 µM | HT-29 > 100 µM | SK-MEL-28 > 100 µM | OVCAR-3 > 100 µM | KM12 > 100 µM | LOX IMVI > 100 µM | RPMI-8226 > 100 µM | SF-268 > 100 µM

CCOC(=O)/C=C(\C)c1ccc(C)cc1C
inactive: SNB-75 75.3 µM | NCI-H23 45.4 µM | Malme-3M 26.1 µM | COLO 205 > 100 µM | HCC 2998 > 100 µM | MOLT-4 > 100 µM | HL-60 2.89 µM | OVCAR-5 > 100 µM | HOP-92 29.8 µM | SN12C 39.8 µM | UO-31 > 100 µM | NCI-H460 > 100 µM | HT-29 > 100 µM | SK-MEL-28 21.9 µM | HCT-116 > 100 µM | KM12 72.3 µM | LOX IMVI 16.3 µM | RPMI-8226 7.28 µM | SF-268 > 100 µM

O=c1[nH]c2ccc([N+](=O)[O-])cc2nc1/C(=N/Nc1ccccc1)C(O)c1ccco1 (stereo unspecified)
inactive: SNB-75 36.3 µM | NCI-H23 65.3 µM | Malme-3M 63.8 µM | COLO 205 38.8 µM | HCC 2998 38.5 µM | MOLT-4 38.5 µM | HL-60 25.2 µM | OVCAR-5 > 100 µM | HOP-92 > 100 µM | SN12C > 100 µM | UO-31 44.2 µM | NCI-H460 > 100 µM | HT-29 66.8 µM | SK-MEL-28 > 100 µM | OVCAR-3 > 100 µM | HCT-116 73.1 µM | KM12 33.6 µM | LOX IMVI > 100 µM | RPMI-8226 34.7 µM | SF-268 71.6 µM

Cc1c(-c2cc3n(n2)C(c2cccs2)C(C#N)=C(c2ccccc2)N3)c(=O)n(-c2ccccc2)n1C (stereo unspecified)
inactive: SNB-75 > 55.1 µM | NCI-H23 > 89.5 µM | Malme-3M > 100 µM | COLO 205 > 89.3 µM | HCC 2998 > 100 µM | MOLT-4 > 72.6 µM | HL-60 48.9 µM | OVCAR-5 > 100 µM | HOP-92 36 µM | SN12C > 80.2 µM | UO-31 77.4 µM | NCI-H460 76.9 µM | HT-29 43.7 µM | SK-MEL-28 > 100 µM | OVCAR-3 > 100 µM | HCT-116 > 75.7 µM | KM12 94.2 µM | LOX IMVI 38.5 µM | SF-268 > 100 µM

CCN(CC)CCSc1nc(-c2c[nH]c3nc(C)ccc3c2=O)n[nH]1
inactive: NCI-H23 > 100 µM | Malme-3M > 100 µM | COLO 205 > 100 µM | MOLT-4 > 100 µM | HL-60 > 100 µM | OVCAR-5 > 100 µM | SN12C > 100 µM | UO-31 > 100 µM | NCI-H460 > 100 µM | HT-29 > 100 µM | SK-MEL-28 > 100 µM | OVCAR-3 > 100 µM | HCT-116 > 100 µM | KM12 > 100 µM | LOX IMVI > 100 µM | RPMI-8226 > 100 µM | SF-268 > 100 µM

Clc1ccc(COc2ccccc2/C=N/c2c(-c3ccco3)nc3ccccn23)c(Cl)c1
inactive: SNB-75 23.4 µM | NCI-H23 32.3 µM | Malme-3M 36.5 µM | COLO 205 38.9 µM | HCC 2998 95.9 µM | MOLT-4 31.9 µM | HL-60 27 µM | OVCAR-5 > 100 µM | HOP-92 13 µM | SN12C 25.8 µM | UO-31 39.3 µM | NCI-H460 71 µM | HT-29 31.9 µM | SK-MEL-28 66.4 µM | OVCAR-3 37.8 µM | HCT-116 17.5 µM | KM12 36.8 µM | LOX IMVI 17.1 µM | RPMI-8226 29.9 µM | SF-268 39.3 µM

CCC1(C)NN=c2s/c(=C/c3ccc(OC)cc3)c(=O)n2N1 (stereo unspecified)
inactive: SNB-75 38.2 µM | NCI-H23 > 100 µM | Malme-3M > 100 µM | COLO 205 > 100 µM | HCC 2998 > 100 µM | MOLT-4 > 100 µM | OVCAR-5 > 100 µM | HOP-92 17.6 µM | SN12C > 100 µM | UO-31 > 100 µM | NCI-H460 > 100 µM | HT-29 > 100 µM | SK-MEL-28 > 100 µM | OVCAR-3 80.4 µM | HCT-116 > 100 µM | KM12 > 100 µM | LOX IMVI > 100 µM | SF-268 65 µM

O=C1CC2(CCC(O)(c3ccccc3)C(C(=O)c3ccccc3)C2)C(=O)c2ccccc2N1 (stereo unspecified)
inactive: SNB-75 > 100 µM | NCI-H23 > 100 µM | Malme-3M > 100 µM | COLO 205 > 100 µM | HCC 2998 > 100 µM | MOLT-4 > 100 µM | HL-60 > 100 µM | OVCAR-5 > 100 µM | HOP-92 93.5 µM | SN12C > 100 µM | UO-31 > 100 µM | NCI-H460 > 100 µM | HT-29 > 100 µM | SK-MEL-28 > 100 µM | OVCAR-3 > 100 µM | HCT-116 > 100 µM | LOX IMVI > 100 µM | SF-268 > 100 µM

Cc1oc2nc(N(C)C)n3cnnc3c2c1C
inactive: SNB-75 50.6 µM | NCI-H23 > 100 µM | COLO 205 > 100 µM | HCC 2998 > 100 µM | MOLT-4 > 100 µM | HL-60 > 100 µM | OVCAR-5 > 100 µM | HOP-92 > 100 µM | SN12C > 100 µM | UO-31 > 100 µM | NCI-H460 > 100 µM | HT-29 > 100 µM | SK-MEL-28 > 100 µM | OVCAR-3 > 100 µM | HCT-116 > 100 µM | KM12 > 100 µM | RPMI-8226 > 100 µM | SF-268 > 100 µM

CCc1cc2c(oc3cc4ccccc4cc32)c(=O)[nH]1
inactive: SNB-75 > 10 µM | Malme-3M > 10 µM | HCC 2998 > 10 µM | HL-60 > 10 µM | OVCAR-5 > 10 µM | HOP-92 > 10 µM | SN12C > 10 µM | UO-31 > 10 µM | NCI-H460 > 10 µM | HT-29 > 10 µM | OVCAR-3 > 10 µM | HCT-116 > 10 µM | KM12 > 10 µM | LOX IMVI > 10 µM | SF-268 > 10 µM

N=C(N)c1csc([C@@H]2O[C@H](CO)[C@@H](O)[C@H]2O)n1
inactive: SNB-75 80.9 µM | NCI-H23 > 100 µM | Malme-3M > 100 µM | HCC 2998 > 100 µM | MOLT-4 > 100 µM | HL-60 > 100 µM | SN12C > 100 µM | UO-31 > 100 µM | NCI-H460 > 100 µM | SK-MEL-28 > 100 µM | HCT-116 > 100 µM | KM12 > 100 µM | LOX IMVI > 100 µM | RPMI-8226 > 100 µM | SF-268 > 100 µM
